Measured values from patent US20070009509A1, “Antibody against nox1 polypeptide, method of diagnosing cancer with the use of nox1 gene and method of screening cancer growth inhibitor” (priority 2003, published 2007).

How the values were obtained:
K-Ras-NRK cells = assay: Morphology of K-Ras-NRK cells treated overnight with inhibitors; format: cell-based, rat; conditions: 20 μM DPI, 30 μM PD98059, 10 mM n-acetyl cysteine (data not shown), FIG. 13
Procedure: Diphenylene iodonium (DPI), a Nox1 inhibitor, was used to examine the influence of Nox1 gene expression on the morphologies of the cells transformed with mutant Ras. Namely, K-Ras-NRK cells and NRK cells were cultured overnight at 37° C. in a medium containing 20 μM DPI or 30 μM PD98059 under a 5% CO2-containing moisture environment to observe morphological changes.

[1] = system: superoxide production in K-Ras-NRK cells; assay: Superoxide production by NBT reduction analysis; format: cell-based, rat; conditions: 40 units of superoxide dismutase, 37° C., 8 minutes
Procedure: The present inventors measured superoxide production by NBT reduction analysis using the transformed cells of Example 4 in order to evaluate the role of Nox1 in superoxide production induced by mutant Ras. In the present example, the method of Suh et al. was used in the NBT (nitroblue tetrazolium) analysis (1). Namely, 0.2 ml of a Hanks solution containing 0.25% NBT was prepared with or without 40 units of superoxide dismutase (SOD), a reactive oxygen-digesting enzyme, in which 2×10^5 cells were in turn suspended and treated at 37° C. for 8 minutes. The treated cells were separated by low-speed centrifugation and solubilized by the addition of 0.5 ml of pyridine. Absorbance at 510 nm was measured to quantify a decrease in NBT (extinction coefficient of 11,000/M/cm). The obtained data was shown in FIG. 6 with +/−s.e.m. from 3 measurements.

[2] = system: Nox1 expression in the K-Ras-NRK cells; assay: Nox1 expression in K-Ras-NRK cells by real-time quantitative polymerase chain reaction; format: cell-based, rat; conditions: PD98059 20 μM, 100 μM, treated for 12 hours; FIG. 1(a)
Procedure: At first, rat kidney (NRK) cells and K-Ras-NRK cells (Kirstein murine sarcoma virus-transformed NRK cells) were prepared. The K-Ras-NRK cells were purchased from ATCC.
The presence or absence of Nox1 expression in the rat kidney (NRK) cells and the K-Ras-NRK cells was initially detected by real-time quantitative polymerase chain reaction. The real-time quantitative polymerase chain reaction used a forward primer of SEQ ID NO: 15, a reverse primer of SEQ ID NO: 16, and a TaqMan MGB probe of SEQ ID NO: 17.
The real-time quantitative polymerase chain reaction was performed using ABI Prism 7700 (Applied Biosystems) under reaction conditions set to defaults. Analytical values were standardized using rRNA 18S.
(§1) A series of experiments were performed for analyzing the downstream region of a Ras signaling pathway of Nox1 gene expression elevated by mutant Ras gene. In Examples 1 and 2, the cells were treated for 12 hours with PD98059 (PD: 20 μM, 100 μM), an MAPKK inhibitor, to analyze Nox1 expression in the K-Ras-NRK cells and serum- and EGF-induced Nox1 expression by real-time quantitative polymerase chain reaction.

[3] = system: Nox1 gene expression in NIH3T3 cells; assay: Serum- and EGF-induced Nox1 expression in NIH3T3 cells by real-time quantitative polymerase chain reaction; format: cell-based
Procedure: NIH3T3 cells cultured overnight under serum-free conditions were treated mitogeniclally with serum (30%) or 50 ng/ml epidermal growth factor (EGF) and then analyzed by real-time quantitative polymerase chain reaction. As a result, Nox1 gene expression was increased to 6 to 20 times within 12 hours from the initiation of the culture, as shown in FIGS. 1(c) and (d). That is, Nox1 gene expression is associated with factors that promote cell growth. This is consistent with the reports saying that both platelet-derived growth factor (PDGF) and angiotensin II induce superoxide formation and Nox1 gene expression in vascular smooth muscle cells (1 and 4).
as §1

[4] = system: Nox1 expression in the H-Ras-NIH3T3 cells; assay: Control experiment: Nox1 expression in H-Ras-NIH3T3 cells; format: cell-based; conditions: wortmannin 100 nM; data not shown

With c1ccc2c(c1)[I+]c1ccccc1-2 [DPI, Diphenylene iodonium] as the compound, how does the “morphological changes of K-Ras-NRK cells” value (K-Ras-NRK cells) read?
The value was “transiently assumed a flat shape that was close to the shape of the NRK cells”.

For superoxide dismutase, which “NBT reduction increased in K-Ras-NRK and K-Ras-NRK/neg-1” value [1] is on record?
The value was “inhibited”.

With COc1cccc(-c2cc(=O)c3ccccc3o2)c1N [PD98059] as the compound, how does the “Nox1 expression in the K-Ras-NRK cells” value [2] read?
The value was “inhibited by the PD98059 concentration-dependently”.

What about the “EGF-induced Nox1 expression” value ([3]; 20 μM PD98059, 50 ng/ml EGF, FIG. 1(d)) of the same compound?
The value was “inhibited”.

And the “serum-induced Nox1 expression” value ([3]; 20 μM PD98059, serum (30%), FIG. 1(c))?
The value was “inhibited”.

And the “morphological changes of K-Ras-NRK cells” value (K-Ras-NRK cells)?
The value was “such morphological changes were also observed”.

COC[C@H]1OC(=O)c2coc3c2[C@@]1(C)C1=C(C3=O)[C@@H]2CCC(=O)[C@@]2(C)C[C@H]1OC(C)=O [wortmannin] was tested. Which “increase in Nox1 expression in the H-Ras-NIH3T3 cells” value [4] did it give?
The value was “did not inhibit”.

How did the “morphological changes of K-Ras-NRK cells” value (K-Ras-NRK cells) turn out when CC(=O)N[C@@H](CS)C(=O)O [n-acetyl cysteine] was run?
Its value is “transiently assumed a flat shape that was close to the shape of the NRK cells”.
